Measurements from patent US20250052985A1, “SYSTEM AND METHOD FOR QUANTITATIVE PHASE IMAGING FOR MULTI-PARAMETRIC SCREENING OF TUMOR THERAPY RESPONSE” (UNIVERSITY OF UTAH RESEARCH FOUNDATION, priority 2023, published 2025).

How the values were obtained:
Assay type in all cases: cell-based
HCI-038 PDxO cells = assay: QPI on cells from patient-derived organoid HCI-038 (bone metastasis); conditions: HCI-038
Experimental: In some embodiments, the QPI microscope system 110 performs QPI on cells from patient-derived organoids and direct-from-patient samples. For example, the electronic controller 155 analyzes data on cells from a set of 5 organoids representing samples collected from two patients, as illustrated by a workflow 3400 in FIG. 24. The workflow 3400 is an experiment workflow illustrating how assays are analyzed by the QPI microscope system 110. In some embodiments, the QPI microscope system 110 images cells for 48 h, and uses an automatic segmentation algorithm, via the electronic controller 155, to identify individual cells from background, as shown in images 3405 and 3410 of FIG. 24. […] The electronic controller 155 determines the mass of each cell by summing the cell mass over the segmented area. In some embodiments, plots of mass over time reveal single cell growth rates, as shown by graph 3415 of FIG. 24. The graph 3415 is a mass vs. time plot showing DMSO treated cells growing cells at a typical location. Cells outlined in green are shown as green on the plot, other growing cells are shown in purple. […] In some embodiments, EC50 measured by the QPI microscope system 110 is strongly concordant with gold standard techniques such as CTG over 27 conditions (e.g., 9 compounds, 3 breast cancer cell lines). […]

HCI-037 PDxO cells = assay: QPI on cells from patient-derived organoid HCI-037 (primary lesion); conditions: HCI-037
Experimental: (§1) In some embodiments, the QPI microscope system 110 performs QPI on cells from patient-derived organoids and direct-from-patient samples. For example, the electronic controller 155 analyzes data on cells from a set of 5 organoids representing samples collected from two patients, as illustrated by a workflow 3400 in FIG. 24. The workflow 3400 is an experiment workflow illustrating how assays are analyzed by the QPI microscope system 110. In some embodiments, the QPI microscope system 110 images cells for 48 h, and uses an automatic segmentation algorithm, via the electronic controller 155, to identify individual cells from background, as shown in images 3405 and 3410 of FIG. 24. […] The electronic controller 155 determines the mass of each cell by summing the cell mass over the segmented area. In some embodiments, plots of mass over time reveal single cell growth rates, as shown by graph 3415 of FIG. 24. The graph 3415 is a mass vs. time plot showing DMSO treated cells growing cells at a typical location. Cells outlined in green are shown as green on the plot, other growing cells are shown in purple. The electronic controller 155 determine the specific growth rate (SGR) by fitting a line to time-series mass measurements and normalizing by an initial mass predicted by the fit to account for the effect of cell size on growth rate. The electronic controller 155 fits SGR as a function of dose to a sigmoidal dose response curve using a 3-parameter Hill model to extract dose response measurements, as shown by graph 3420 of FIG. 24. […] In some embodiments, EC50 measured by the QPI microscope system 110 is strongly concordant with gold standard techniques such as CTG over 27 conditions (e.g., 9 compounds, 3 breast cancer cell lines). […] As with cell line data, QPI data on cells from PDxO resolves differences in temporal dynamics of response to therapy, as shown in graph 3425 of FIG. 24. […] In some embodiments, the electronic controller 155 is configured to determine a drug response of each of the plurality of treatment samples from patient derived organoids.
The graphs 3500 includes graph A of the graphs 3500 showing normalized mass vs. time for HCI-037 (primary), HCI-038 (metastatic), and HCI-039 (pleural effusion) showing reduction in growth as concentration increases. Graphs B, C, D, and E of the graphs 3500 show dose response plots showing the differential response between different disease models. Graphs F, G, H, and I of the graphs 3500 show Hellinger distance vs. time plots showing the time of response for the different models treated with various therapies. In some embodiments, HCI-037, HCI-038, and HCI-039, PDxO models are used that are derived from primary lesion, bone metastasis, and pleural effusion, respectively, at different time points from a single patient during the course of treatment and progressive disease. In some embodiments, the electronic controller 155 is configured to determine a difference drug response from patient derived organoids. In some embodiments, the patient derived organoids are tumor organoids.

HCI-039 PDxO cells = assay: QPI on cells from patient-derived organoid HCI-039 (pleural effusion); conditions: HCI-039
Experimental: as §1, with “organoids. […]” for “organoids.”

EC50 compared with HCI-039 (HCI-037 PDxO cells): similar
EC50 compared with HCI-037 (HCI-039 PDxO cells): similar
Compound: CC[C@H](NC(=O)[C@H](C)NC)C(=O)N1C[C@@H](O)C[C@H]1Cc1c(-c2[nH]c3cc(F)ccc3c2C[C@@H]2C[C@H](O)CN2C(=O)[C@H](CC)NC(=O)[C@H](C)NC)[nH]c2cc(F)ccc12 [birinapant]
response (HCI-038 PDxO cells): no response
depth of response compared with HCI-039 (HCI-037 PDxO cells): much greater depth of response
time of response compared with HCI-037 (HCI-039 PDxO cells): much faster time of response
